Patent publication US20090311217A1, “3-SUBSTITUTED-1H-INDOLE COMPOUNDS, THEIR USE AS MTOR KINASE AND PI3 KINASE INHIBITORS, AND THEIR SYNTHESES” (priority 2008, published 2009)
Read-outs that look alike come from different tables or passages of the source.

What was measured:
Type in all cases: biochemical
PI3K-alpha = PI3K-alpha (Homo sapiens, UniProt P42336); assay: PI3K-alpha fluorescence polarization assay
human TOR = target: T1, human TOR (Homo sapiens, UniProt P42345); assay: mTOR enzyme assay (DELFIA, His6-S6K substrate)
T1 construct: FLAG

PI3K-gamma = PI3K-gamma (Homo sapiens, UniProt P48736); assay: PI3K-gamma fluorescence polarization assay; conditions: PI3Kγ Avg. IC50
PI3K-gamma, sequence (P48736 whole entry, species assumed, the tested form may be a part): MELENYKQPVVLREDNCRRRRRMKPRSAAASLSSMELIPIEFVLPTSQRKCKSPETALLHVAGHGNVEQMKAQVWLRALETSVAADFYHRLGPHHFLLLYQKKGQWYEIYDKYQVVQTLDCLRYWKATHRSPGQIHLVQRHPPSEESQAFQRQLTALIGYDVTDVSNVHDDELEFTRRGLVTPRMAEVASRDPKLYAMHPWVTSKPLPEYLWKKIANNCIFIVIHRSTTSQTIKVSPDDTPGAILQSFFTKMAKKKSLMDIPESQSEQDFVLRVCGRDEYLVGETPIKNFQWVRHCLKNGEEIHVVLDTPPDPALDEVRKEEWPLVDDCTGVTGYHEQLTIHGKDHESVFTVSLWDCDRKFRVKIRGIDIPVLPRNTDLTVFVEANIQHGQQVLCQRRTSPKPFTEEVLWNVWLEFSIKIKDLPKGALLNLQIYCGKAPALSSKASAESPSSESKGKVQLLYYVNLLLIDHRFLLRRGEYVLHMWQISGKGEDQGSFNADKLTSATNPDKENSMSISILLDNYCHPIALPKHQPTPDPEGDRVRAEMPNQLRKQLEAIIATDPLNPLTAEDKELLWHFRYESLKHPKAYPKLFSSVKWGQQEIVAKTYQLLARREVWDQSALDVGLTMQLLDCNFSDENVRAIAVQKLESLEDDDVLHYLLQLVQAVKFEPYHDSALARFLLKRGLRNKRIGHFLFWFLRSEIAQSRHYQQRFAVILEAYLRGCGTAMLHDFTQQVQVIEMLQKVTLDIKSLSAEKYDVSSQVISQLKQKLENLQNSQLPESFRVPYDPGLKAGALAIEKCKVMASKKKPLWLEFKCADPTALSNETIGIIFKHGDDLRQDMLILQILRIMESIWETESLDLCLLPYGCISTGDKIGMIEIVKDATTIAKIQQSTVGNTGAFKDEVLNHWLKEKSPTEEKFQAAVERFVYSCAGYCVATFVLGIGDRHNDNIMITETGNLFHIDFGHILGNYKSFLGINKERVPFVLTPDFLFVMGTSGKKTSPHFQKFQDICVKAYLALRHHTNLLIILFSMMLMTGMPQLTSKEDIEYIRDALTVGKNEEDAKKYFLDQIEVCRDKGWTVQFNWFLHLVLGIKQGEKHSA
How it was run: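 Reactions used 5 ng enzyme with 2.5 μM diC8-PI(4,5)P2 and 25 μM ATP in 5 mM HEPES pH 7, 2.5 mM MgCl2, run 1 h at 25° C. After an EDTA quench (10 mM), 100 nM GST-GRP1 PH domain and 5 nM BODIPY-TMR-IP4 were added and fluorescence polarization was read.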

[1] = read-out: mTOR Kinase Avg. IC50

PI3K-alpha, sequence (P42336 whole entry, species assumed): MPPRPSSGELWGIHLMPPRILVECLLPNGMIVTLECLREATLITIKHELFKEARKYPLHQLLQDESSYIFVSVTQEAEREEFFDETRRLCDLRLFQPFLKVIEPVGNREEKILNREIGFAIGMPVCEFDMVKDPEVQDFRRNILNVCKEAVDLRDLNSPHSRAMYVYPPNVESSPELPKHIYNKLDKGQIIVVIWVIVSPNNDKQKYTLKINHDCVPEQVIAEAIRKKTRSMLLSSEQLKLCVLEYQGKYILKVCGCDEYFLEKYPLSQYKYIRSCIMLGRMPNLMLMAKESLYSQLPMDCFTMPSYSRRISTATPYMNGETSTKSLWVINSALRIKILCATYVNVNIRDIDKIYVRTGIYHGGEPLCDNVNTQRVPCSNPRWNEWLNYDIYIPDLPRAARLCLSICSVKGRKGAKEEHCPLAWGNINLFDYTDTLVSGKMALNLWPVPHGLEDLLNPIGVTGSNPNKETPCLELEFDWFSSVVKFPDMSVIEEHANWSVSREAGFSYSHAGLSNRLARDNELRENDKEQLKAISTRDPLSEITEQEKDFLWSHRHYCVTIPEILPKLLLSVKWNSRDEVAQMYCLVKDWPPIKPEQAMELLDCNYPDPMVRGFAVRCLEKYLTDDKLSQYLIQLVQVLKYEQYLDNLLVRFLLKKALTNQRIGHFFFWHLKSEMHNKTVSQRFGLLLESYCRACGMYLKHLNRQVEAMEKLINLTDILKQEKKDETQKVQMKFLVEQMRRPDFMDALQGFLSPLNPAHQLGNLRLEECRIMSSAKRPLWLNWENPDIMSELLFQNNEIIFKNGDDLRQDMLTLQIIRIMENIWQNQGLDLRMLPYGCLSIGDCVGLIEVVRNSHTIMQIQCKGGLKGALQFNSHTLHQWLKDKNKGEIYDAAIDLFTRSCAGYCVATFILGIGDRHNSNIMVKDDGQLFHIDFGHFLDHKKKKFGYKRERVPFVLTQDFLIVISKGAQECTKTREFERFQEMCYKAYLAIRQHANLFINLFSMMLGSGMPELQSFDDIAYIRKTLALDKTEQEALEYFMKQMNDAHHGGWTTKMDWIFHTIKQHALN
PI3K-alpha, sequence (P27986 whole entry partner, species assumed): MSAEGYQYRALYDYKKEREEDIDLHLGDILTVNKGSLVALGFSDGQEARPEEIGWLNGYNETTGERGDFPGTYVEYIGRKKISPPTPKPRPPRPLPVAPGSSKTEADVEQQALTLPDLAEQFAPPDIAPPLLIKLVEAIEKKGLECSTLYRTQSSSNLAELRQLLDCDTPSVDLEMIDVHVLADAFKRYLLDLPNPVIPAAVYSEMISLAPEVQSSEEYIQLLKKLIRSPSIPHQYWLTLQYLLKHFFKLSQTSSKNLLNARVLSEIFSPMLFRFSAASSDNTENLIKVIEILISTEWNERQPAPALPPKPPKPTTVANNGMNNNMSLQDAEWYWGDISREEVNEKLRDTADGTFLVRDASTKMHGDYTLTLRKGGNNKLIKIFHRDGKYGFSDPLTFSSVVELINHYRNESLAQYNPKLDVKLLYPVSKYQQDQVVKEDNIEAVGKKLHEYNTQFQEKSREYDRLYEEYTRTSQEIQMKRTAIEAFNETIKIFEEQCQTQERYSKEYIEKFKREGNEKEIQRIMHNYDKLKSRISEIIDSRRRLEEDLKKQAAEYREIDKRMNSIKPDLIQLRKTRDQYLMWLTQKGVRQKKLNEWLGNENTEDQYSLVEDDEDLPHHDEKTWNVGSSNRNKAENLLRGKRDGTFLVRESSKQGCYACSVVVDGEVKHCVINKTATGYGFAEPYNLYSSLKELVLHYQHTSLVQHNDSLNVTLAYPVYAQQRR

Structure (SMILES)	IC50 (PI3K-alpha; read-out: PI3Kα Avg. IC50) [µM]	IC50 (human TOR; [1]) [µM]	IC50 (PI3K-gamma) [µM]	IC50 (PI3K-alpha; PI3Kα Avg. IC50) [µM]	IC50 (human TOR; mTOR Kinase Avg. IC50) [µM]
Cn1c(-c2ccccc2)c(C=C2Oc3ccccc3C2=O)c2ccccc21 [Example 3, 2-[(1-methyl-2-phenyl-1H-indol-3-yl)methylene]-1-benzofuran-3(2H)-one]	> 10	> 20			
Cn1cc(C=C2Oc3ccccc3C2=O)c2ccccc21 [Example 4, 2-[(1-methyl-1H-indol-3-yl)methylene]-1-benzofuran-3(2H)-one]	12.3	> 20			
O=C1C(=Cc2c[nH]c3ccccc23)Oc2cc(O)cc(O)c21 [Example 13, 4,6-dihydroxy-2-(1H-indol-3-ylmethylene)-1-benzofuran-3(2H)-one]				6.75	9.2
Cn1c(-c2ccccc2)c(C=C2Oc3cc(O)cc(O)c3C2=O)c2ccccc21 [Example 15, 4,6-dihydroxy-2-[(1-methyl-2-phenyl-1H-indol-3-yl)methylene]-1-benzofuran-3(2H)-one]		0.09		2.66	
O=C1/C(=C/c2c[nH]c3ccc(OCc4ccccc4)cc23)Oc2cc(O)ccc21 [Example 34, (2Z)-2-{[5-(benzyloxy)-1H-indol-3-yl]methylene}-6-hydroxy-1-benzofuran-3(2H)-one]	> 10	> 20			
O=C1/C(=C/c2c(-c3ccc(F)cc3)[nH]c3ccccc23)Oc2cc(O)cc(O)c21 [Example 46, (2Z)-2-{[2-(4-fluorophenyl)-1H-indol-3-yl]methylene}-4,6-dihydroxy-1-benzofuran-3(2H)-one]		0.123		1.58	
Cc1[nH]c2ccccc2c1/C=C1\Oc2cc(O)cc(O)c2C1=O [Example 47, (2Z)-4,6-dihydroxy-2-[(2-methyl-1H-indol-3-yl)methylene]-1-benzofuran-3(2H)-one]		0.5		3.2	
Cc1cccc2c(/C=C3\Oc4cc(O)cc(O)c4C3=O)c[nH]c12 [Example 49, (2Z)-4,6-dihydroxy-2-[(7-methyl-1H-indol-3-yl)methylene]-1-benzofuran-3(2H)-one]	2.43	> 5			
COc1ccc2c(c1)c(C=C1Oc3c(ccc(O)c3O)C1=O)c(C)n2CCCCCl [Example 122, 2-{[1-(4-chlorobutyl)-5-methoxy-2-methyl-1H-indol-3-yl]methylene}-6,7-dihydroxyl-1-benzofuran-3(2H)-one]	0.137		1.5		
COc1ccc2c(c1)c(C=C1Oc3cccc(O)c3C1=O)c(C)n2CCCCN1CCN(C)CC1 [Example 135, 4-hydroxy-2-({5-methoxy-2-methyl-1-[4-(4-methylpiperazin-1-yl)butyl]-1H-indol-3-yl}methylene)-1-benzofuran-3(2H)-one]	1.3		4.77		
COc1ccc2c(c1)c(C=C1Oc3cccc(O)c3C1=O)c(C)n2CCCCN1CCN(CCO)CC1 [Example 137, 4-hydroxy-2-[(1-{4-[4-(2-hydroxyethyl)piperazin-1-yl]butyl}-5-methoxy-2-methyl-1H-indol-3-yl)methylene]-1-benzofuran-3(2H)-one]	0.478		2.77		
Cn1cc(C=C2Oc3cc(O)cc(O)c3C2=O)c2c(-c3ccccc3)cccc21 [Example 268, 4,6-dihydroxy-2-[(1-methyl-4-phenyl-1H-indol-3-yl)methylene]-1-benzofuran-3(2H)-one]	> 5.74		2.69		
O=C1/C(=C/c2c(-c3ccccc3)[nH]c3ccccc23)Sc2ccccc21 [Example 274, (2Z)-2-[(2-phenyl-1H-indol-3-yl)methylene]-1-benzothiophen-3(2H)-one]	0.287		0.255		

Now from value to molecule, other results behind:

IC50 (PI3K-alpha; read-out: PI3Kα Avg. IC50) [µM]	IC50 (human TOR; [1]) [µM]	IC50 (PI3K-gamma) [µM]	Structure (SMILES)	IC50 (PI3K-alpha; PI3Kα Avg. IC50) [µM]	IC50 (human TOR; mTOR Kinase Avg. IC50) [µM]
> 10	> 20		O=C1C(=Cc2c(-c3ccccc3)[nH]c3ccccc23)Oc2ccccc21 [Example 2, 2-[(2-phenyl-1H-indol-3-yl)methylene]-1-benzofuran-3(2H)-one]		
> 10	> 20		O=C1C(=Cc2c[nH]c3ccccc23)Oc2cc(O)ccc21 [Example 5, 6-hydroxy-2-(1H-indol-3-ylmethylene)-1-benzofuran-3(2H)-one]		
2.4	2.85		O=C1C(=Cc2c(-c3ccccc3)[nH]c3ccccc23)Oc2cc(O)ccc21 [Example 6, 6-hydroxy-2-[(2-phenyl-1H-indol-3-yl)methylene]-1-benzofuran-3(2H)-one]		
> 10	> 20		Cn1cc(C=C2Oc3cc(O)ccc3C2=O)c2ccccc21 [Example 8, 6-hydroxy-2-[(1-methyl-1H-indol-3-yl)methylene]-1-benzofuran-3(2H)-one]		
3.42	> 5		Cc1ccc2c(/C=C3\Oc4cc(O)cc(O)c4C3=O)c[nH]c2c1 [Example 48, (2Z)-4,6-dihydroxy-2-[(6-methyl-1H-indol-3-yl)methylene]-1-benzofuran-3(2H)-one]		
> 10	> 5		O=C1/C(=C/c2cn(Cc3ccccc3)c3ccccc23)Oc2cc(O)cc(O)c21 [Example 51, (2Z)-2-[(1-benzyl-1H-indol-3-yl)methylene]-4,6-dihydroxy-1-benzofuran-3(2H)-one]		
0.317		5.43	COc1ccc2c(c1)c(C=C1Oc3cccc(O)c3C1=O)c(C)n2C [Example 121, 4-hydroxy-2-[(5-methoxy-1,2-dimethyl-1H-indol-3-yl)methylene]-1-benzofuran-3(2H)-one]		
1.22		> 10	COc1ccc2c(c1)c(C=C1Oc3cccc(O)c3C1=O)c(C)n2CCCCCl [Example 123, 2-{[1-(4-chlorobutyl)-5-methoxy-2-methyl-1H-indol-3-yl]methylene}-4-hydroxy-1-benzofuran-3(2H)-one]		
0.0645		1.22	COc1ccc2c(c1)c(C=C1Oc3c(ccc(O)c3O)C1=O)c(C)n2CCCCl [Example 124, 2-{[1-(3-chloropropyl)-5-methoxy-2-methyl-1H-indol-3-yl]methylene}-6,7-dihydroxy-1-benzofuran-3(2H)-one]		
0.38		0.933	COc1ccc2c(c1)c(C=C1Oc3cccc(O)c3C1=O)c(C)n2CCCCl [Example 125, 2-{[1-(3-chloropropyl)-5-methoxy-2-methyl-1H-indol-3-yl]methylene}-4-hydroxy-1-benzofuran-3(2H)-one]		
0.235		2.48	COc1ccc2c(c1)c(C=C1Oc3cccc(O)c3C1=O)c(C)n2CCCCN1CCOCC1 [Example 136, 4-hydroxy-2-{[5-methoxy-2-methyl-1-(4-morpholin-4-ylbutyl)-1H-indol-3-yl]methylene}-1-benzofuran-3(2H)-one]		
0.502		1.75	COc1cc2[nH]cc(C=C3Oc4cc(O)cc(O)c4C3=O)c2cc1OC [Example 181, 2-[(5,6-dimethoxy-1H-indol-3-yl)methylene]-4,6-dihydroxy-1-benzofuran-3(2H)-one]		
3.5		> 10	N#CCCCn1cc(C=C2Oc3cc(O)cc(O)c3C2=O)c2cc(F)ccc21 [Example 231, 4-{3-[(4,6-dihydroxy-3-oxo-1-benzofuran-2(3H)-ylidene)methyl]-5-fluoro-1H-indol-1-yl}butanenitrile]		
0.268		0.264	O=C1/C(=C/c2c(-c3ccc(F)cc3)[nH]c3ccccc23)Sc2ccccc21 [Example 277, (2Z)-2-{[2-(4-fluorophenyl)-1H-indol-3-yl]methylene}-1-benzothiophen-3(2H)-one]		
